Patent US9062059B2, “Pyrimidine PDE10 inhibitors” (Merck Sharp & Dohme Corp., priority 2011, dated 2015)

target: human PDE10A2 (Homo sapiens (Human), UniProt Q9Y233); test: PDE10 fluorescence polarization (IMAP FP) inhibition assay; assay type: biochemical; details: read-out: PDE10A Ki
Procedure: The activity of the compounds in accordance with the present invention as PDE10 inhibitors may be readily determined without undue experimentation using a fluorescence polarization (FP) methodology that is well known in the art (Huang, W., et al., J. Biomol Screen, 2002, 7: 215).
In a typical experiment the PDE10 inhibitory activity of the compounds of the present invention was determined in accordance with the following experimental method. PDE10A2 was amplified from human fetal brain cDNA (Clontech, Mountain View, Calif.) using a forward primer corresponding to nucleotides 56-77 of human PDE10A2 (Accession No. AF127480, Genbank Identifier 4894716), containing a Kozak consensus sequence, and a reverse primer corresponding to nucleotides 2406-2413 of human PDE10A2 (Accession No. AF127480, Genbank Identifier 4894716). Amplification with Easy-A polymerase (Stratagene, La Jolla, Calif.) was 95° C. for 2 minutes followed by thirty three cycles of 95° C. for 40 seconds, 55° C. for 30 seconds, and 72° C. for 2 minutes 48 seconds. Final extension was 72° C. for 7 minutes. The PCR product was TA cloned into pcDNA3.2-TOPO (Invitrogen, Carlsbad, Calif.) according to standard protocol. AD293 cells with 70-80% confluency were transiently transfected with human PDE10A2/pcDNA3.2-TOPO using Lipofectamine 2000 according to manufacturer specifications (Invitrogen, Carlsbad, Calif.). Cells were harvested 48 hours post-transfection and lysed by sonication (setting 3, 10×5 sec pulses) in a buffer containing 20 mM HEPES, 1 mM EDTA and protease inhibitor cocktail (Roche). Lysate was collected by centrifugation at 75,000×g for 20 minutes. Supernatant containing the cytoplasmic fraction was used for evaluation of PDE10A2 activity. The fluorescence polarization assay for cyclic nucleotide phosphodiesterases was performed using an IMAP® FP kit supplied by Molecular Devices, Sunnyvale, Calif. (product # R8139). IMAP® technology has been applied previously to phosphodiesterase assays (Huang, W., et al., J. Biomol Screen, 2002, 7: 215). Assays were performed at room temperature in 384-well microtiter plates with an incubation volume of 20.2 μL. Solutions of test compounds were prepared in DMSO and serially diluted with DMSO to yield 8 μL of each of 10 solutions differing by 3-fold in concentration, at 32 serial dilutions per plate. 100% inhibition is determined using a known PDE10 inhibitor, which can be any compound that is present at 5,000 times its Ki value in the assay described as follows, such as papaverine (see Siuciak, et al. Neuropharmacology (2006) 51:386-396; Becker, et al. Behav Brain Res (2008) 186(2):155-60; Threlfell, et al., J Pharmacol Exp Ther (2009) 328(3):785-795), 2-{4-[pyridin-4-yl-1-(2,2,2-trifluoroethyl)-1H-pyrazol-3-yl]phenoxymethyl}quinoline succinic acid or 2-[4-(1-methyl-4-pyridin-4-yl-1H-pyrazol-3-yl)-phenoxymethyl]quinoline succinic acid (see Schmidt, et al. J Pharmacol Exp Ther (2008) 325:681-690; Threlfell, et al., J Pharmacol Exp Ther (2009) 328(3): 785-795). 0% of inhibition is determined by using DMSO (1% final concentrations).
A Labcyte Echo 555 (Labcyte, Sunnyvale, Calif.) is used to dispense 200 nL from each well of the titration plate to the 384 well assay plate. A solution of enzyme (1/1600 dilution from aliquots; sufficient to produce 20% substrate conversion) and a separate solution of FAM-labeled cAMP PDE from Molecular Devices (product # R7506), at a final concentration of 50 nM are made in the assay buffer (10 mM Tris HCl, pH 7.2, 10 mM MgCl2, 0.05% NaN3 0.01% Tween-20, and 1 mM DTT). The enzyme and the substrate are then added to the assay plates in two consecutive additions of 10 μL, and then shaken to mix. The reaction is allowed to proceed at room temperature for 30 minutes. A binding solution is then made from the kit components, comprised of 80% Solution A, 20% Solution B and binding reagent at a volume of 1/600 the total binding solution.

human PDE10A2, sequence (Q9Y233 267-1055): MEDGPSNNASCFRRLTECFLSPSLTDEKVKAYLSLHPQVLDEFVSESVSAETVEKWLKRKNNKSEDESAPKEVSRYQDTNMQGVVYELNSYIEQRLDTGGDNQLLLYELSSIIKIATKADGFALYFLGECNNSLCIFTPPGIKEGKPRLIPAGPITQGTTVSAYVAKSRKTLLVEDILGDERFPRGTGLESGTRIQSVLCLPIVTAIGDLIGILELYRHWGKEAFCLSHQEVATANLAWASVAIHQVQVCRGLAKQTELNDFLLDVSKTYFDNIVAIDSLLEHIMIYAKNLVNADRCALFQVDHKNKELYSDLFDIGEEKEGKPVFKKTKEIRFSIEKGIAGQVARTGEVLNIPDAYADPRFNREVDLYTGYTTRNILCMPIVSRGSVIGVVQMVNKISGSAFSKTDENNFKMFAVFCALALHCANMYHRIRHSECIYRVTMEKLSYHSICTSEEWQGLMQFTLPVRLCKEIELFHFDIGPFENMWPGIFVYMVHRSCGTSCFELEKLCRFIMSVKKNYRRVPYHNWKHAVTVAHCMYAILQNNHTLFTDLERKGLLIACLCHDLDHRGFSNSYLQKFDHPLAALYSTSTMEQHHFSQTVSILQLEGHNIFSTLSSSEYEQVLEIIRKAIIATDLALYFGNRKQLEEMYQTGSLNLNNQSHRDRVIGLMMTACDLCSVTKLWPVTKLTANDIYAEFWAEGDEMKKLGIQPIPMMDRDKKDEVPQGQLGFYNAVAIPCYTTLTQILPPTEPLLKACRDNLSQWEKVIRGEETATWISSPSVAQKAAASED

SMILES	Ki [nM]
Cc1nc(NCc2cnn(C)c2)cc(OC[C@H]2C[C@@H]2c2ccc(C(F)F)cn2)n1 (stereo in doubt) [Compound 2-17, 6-({2-[5-(difluoromethyl)pyridin-2-yl]cyclopropyl}methoxy)-2-methyl-N-[(1-methyl-1H-pyrazol-4-yl)methyl]pyrimidin-4-amine]	3.5
Cc1nc(NCc2nnc(C3CC3)s2)cc(OC[C@H]2C[C@@H]2c2ccccn2)n1 [Compound 2-37, S,S-N-[(5-cyclopropyl-1,3,4-thiadiazol-2-yl)methyl]-2-methyl-6-[(2-pyridin-2-ylcyclopropyl)methoxy] pyrimidin-4-amine]	3.8
Cc1ccc([C@H]2C[C@@H]2COc2nc(C)nc(NCc3nnc(C)s3)c2Cl)nc1 [Compound 2-58, S,S-5-chloro-2-methyl-6-{[(1S,2S)-2-(5-methylpyridin-2-yl)cyclopropyl]methoxy}-N-[(5-methyl-1,3,4-thiadiazol-2-yl)methyl]pyrimidin-4-amine]	3.9
COc1cccnc1[C@H]1C[C@@H]1COc1cc(NCc2cnn(C)c2)nc(C)n1 (stereo in doubt) [Compound 2-14, 6-{[2-(3-methoxypyridin-2-yl)cyclopropyl]methoxy}-2-methyl-N-[(1-methyl-1H-pyrazol-4-yl)methyl]pyrimidin-4-amine]	3.6
COc1ccc([C@H]2C[C@@H]2COc2cc(NCc3nnc(C)s3)nc(N)n2)nc1 [Compound 2-53, S,S-6-{[(1S,2S)-2-(5-methoxypyridin-2-yl)cyclopropyl]methoxy}-N-4-[(5-methyl-1,3,4-thiadiazol-2-yl)methyl]pyrimidine-2,4-diamine]	0.05
Cc1nc(NCc2cnn(C)c2)cc(OCC2CC2c2ccccn2)n1 (stereo not shown) [Compound 1-2, 2-methyl-N-[(1-methyl-1H-pyrazol-4-yl)methyl]-6-[(2-pyridin-2-ylcyclopropyl)methoxy]pyrimidin-4-amine]	0.03
Cc1nc(NCc2nnc(C)s2)cc(OC[C@H]2C[C@@H]2c2ccc3ncccc3n2)n1 [Compound 2-27, S,S-2-methyl-N-[(5-methyl-1,3,4-thiadiazol-2-yl)methyl]-6-{[2-(1,5-naphthyridin-2-yl)cyclopropyl]methoxy} pyrimidin-4-amine]	0.02
Cc1nc(NCc2sc(C)nc2C)c(C)c(OC[C@H]2C[C@@H]2c2ccccn2)n1 [Compound 2-47, S,S-N-[(2,4-dimethyl-1,3-thiazol-5-yl)methyl]-2,5-dimethyl-6-[(2-pyridin-2-ylcyclopropyl)methoxy] pyrimidin-4-amine]	41.7
Cc1cc(CNc2cc(OC[C@H]3C[C@@H]3c3ccc4ccccc4n3)nc(C)n2)n(C)n1 [Compound 2-4, S,S-N-[(1,3-dimethyl-1H-pyrazol-5-yl)methyl]-2-methyl-6-[(2-quinolin-2-ylcyclopropyl)methoxy] pyrimidin-4-amine]	0.6

Further lines, results first:

Ki [nM]	SMILES
1.1	Cc1nnc(CNc2cc(OC[C@H]3C[C@@H]3c3ccccn3)nc(CF)n2)s1 [Compound 3-8, S,S-2-(fluoromethyl)-N-[(5-methyl-1,3,4-thiadiazol-2-yl)methyl]-6-[(2-pyridin-2-ylcyclopropyl)methoxy] pyrimidin-4-amine]
3.6	Cc1nnc(CNc2nc(N)nc(OC[C@H]3C[C@@H]3c3ccc(Cl)cn3)c2F)s1 [Compound 3-19, 6-{[(1S,2S)-2-(5-chloropyridin-2-yl)cyclopropyl]methoxy}-5-fluoro-N-4-[(5-methyl-1,3,4-thiadiazol-2-yl)methyl]pyrimidine-2,4-diamine]
0.09	Cc1nnc(CNc2nc(N)nc(OC[C@H]3C[C@@H]3c3ccc4c(n3)CCC4)c2F)s1 [Compound 3-25, S,S-6-(((1S,2S)-2-(6,7-dihydro-5H-cyclopenta[b]pyridin-2-yl)cyclopropyl)methoxy)-5-fluoro-N4-((5-methyl-1,3,4-thiadiazol-2-yl)methyl)pyrimidine-2,4-diamine]
0.08	Cc1nc(NCc2nnc(C)s2)cc(OC[C@H]2C[C@@H]2c2ccc(C3CC3)cn2)n1 (stereo in doubt) [Compound 9-2, 6-{[2-(5-cyclopropylpyridin-2-yl)cyclopropyl]methoxy}-2-methyl-N-[(5-methyl-1,3,4-thiadiazol-2-yl)methyl]pyrimidin-4-amine]
1	Cc1nc(NCc2nnc(C)s2)cc(OC[C@H]2C[C@@H]2c2ccc(-c3cccnc3)cn2)n1 (stereo in doubt) [Compound 8-8, 6-{[2-(3,3′-bipyridin-6-yl)cyclopropyl]methoxy}-2-methyl-N-[(5-methyl-1,3,4-thiadiazol-2-yl)methyl] pyrimidin-4-amine]
1.6	Cc1nc(C)c(CNc2cc(OC[C@H]3C[C@@H]3c3ccccn3)nc(C3CC3)n2)s1 [Compound 3-11, S,S-2-cyclopropyl-N-[(2,4-dimethyl-1,3-thiazol-5-yl)methyl]-6-[(2-pyridin-2-ylcyclopropyl)methoxy] pyrimidin-4-amine]
1.6	Cc1ccc([C@H]2C[C@@H]2COc2nc(N)nc(NCc3nnc(C)s3)c2C#N)nc1 [Compound 16-4, 2-amino-4-{[(1S,2S)-2-(5-methylpyridin-2-yl)cyclopropyl]methoxy}-6-{[(5-methyl-1,3,4-thiadiazol-2-yl)methyl]amino}pyrimidine-5-carbonitrile]
5.3	Cc1nc(NCc2ccncc2C)cc(OCC2CC2c2ccccn2)n1 (stereo not shown) [Compound 14-3, 2-methyl-N-((3-methylpyridin-4-yl)methyl)-6-((2-(pyridin-2-yl)cyclopropyl)methoxy)pyrimidin-4-amine]
0.5	COc1ccc([C@H]2C[C@@H]2COc2nc(N)nc(NCc3nnc(C)s3)c2F)nc1 [Compound 3-13, 5-fluoro-6-{[(1S,2S)-2-(5-methoxypyridin-2-yl)cyclopropyl]methoxy}-N-4-[(5-methyl-1,3,4-thiadiazol-2-yl)methyl]pyrimidine-2,4-diamine]
1.1	Cc1nc(NCc2cc(C)on2)cc(OCC2CC2c2ccccn2)n1 (stereo not shown) [Compound 12-2, 2-methyl-N-((5-methylisoxazol-3-yl)methyl)-6-((2-(pyridin-2-yl)cyclopropyl)methoxy)-pyrimidin-4-amine]
